Counter-ions that a name gives are not always drawn.
Biological target: T1, human pancreatic lipase (hPL) (Homo sapiens, UniProt P16233)
T1 construct: gene PNLIP
T1 sequence (P16233 17-465): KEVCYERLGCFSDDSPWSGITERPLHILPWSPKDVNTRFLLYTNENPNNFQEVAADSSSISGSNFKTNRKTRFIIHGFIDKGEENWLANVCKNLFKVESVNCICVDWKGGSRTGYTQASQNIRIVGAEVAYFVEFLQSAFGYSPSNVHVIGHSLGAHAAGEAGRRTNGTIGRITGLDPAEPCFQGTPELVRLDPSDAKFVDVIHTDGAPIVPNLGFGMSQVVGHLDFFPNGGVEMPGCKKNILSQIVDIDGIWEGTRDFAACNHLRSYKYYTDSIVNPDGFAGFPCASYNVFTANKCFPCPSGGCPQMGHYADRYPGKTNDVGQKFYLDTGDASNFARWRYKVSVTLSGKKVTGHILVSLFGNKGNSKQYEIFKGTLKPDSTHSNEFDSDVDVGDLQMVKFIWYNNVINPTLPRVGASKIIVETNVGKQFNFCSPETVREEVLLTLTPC
Conditions: 10 µM; inhibitor
Description: First, we evaluated the inhibitory effect of 94 natural products derived from herbs and 94 drugs on hPL. In our high-throughput screening system, 1 ug/mL hPL was used, and the final concentration of the 94 natural products derived from herbs and 94 drugs used was 10 μM. Other conditions were the same as in the selectivity experiments. […] RLE was incubated with hPL and various enzymes, such as hCES1A, hCES2A, CA, AchE, BchE, 5-HKE, lysozyme, trypsin, thrombin, α-CT, FAP, PREP, pepsin, α-amylase, plasmin, notum and hSA, in a 100 µL incubation mixture consisting of Tris-HCl (pH = 7.4, 25 mM), NaCl (150 mM), CaCl2 (1 mM) and porcine bile salt (0.1 mg/mL) at a concentration of 1.5 µg/mL. The reaction was initiated by adding RLE to the preincubated enzyme mixture at 37 °C, and metabolite formation was determined by measuring the fluorescence intensity of resorufin at 590 nm. In addition, several amino acids (IIe, His, Trp, Val, Leu, Tyr, Ala, Thr, Pro, Asp, Lys, Met, Cys, Ser, Phe, Gly, Glu and Gln), ions (Ni^2+, Ca^2+, Na^+, K^+, Cu^2+, Zn^2+, Mg^2+, NH4^+, Cu^+, Fe^2+ and CN^-) and GSH were measured. The concentration of these interfering factors was 5 μM. […] In this case, a visual high-throughput assay was established to screen hPL inhibitors, using RLE as a fluorogenic substrate in a 96-well microplate.

SMILES | % of control remaining [%]
O=C1C[C@@H](c2ccc(O[C@@H]3O[C@H](CO)[C@@H](O)[C@H](O)[C@H]3O)cc2)Oc2cc(O)ccc21 [Liquiritin] | 105.77
CN(C/C=C/C#CC(C)(C)C)Cc1cccc2ccccc12 [Terbinafine Hydrochloride] | 91.01
CC1(C)O[C@H]2CC(=O)OC[C@]23[C@H]2CC[C@@]4(C)[C@H](c5ccoc5)OC(=O)[C@H]5O[C@]54[C@]2(C)C(=O)C[C@@H]13 [Limonin] | 85.30
CCC(C)(C)C(=O)O[C@H]1C[C@@H](C)C=C2C=C[C@H](C)[C@H](CC[C@@H]3C[C@@H](O)CC(=O)O3)[C@H]21 [Simvastatin] | 84.18
O=C(O)Cc1ccccc1Nc1c(Cl)cccc1Cl [diclofenzc] | 97.62
CC(C)Oc1ccc2c(=O)c(-c3ccccc3)coc2c1 [Ipriflavone] | 84.50
O=C(O)/C=C/c1ccc(O)cc1 [p-Coumaric acid] | 98.98
O=c1c(-c2ccc(O)cc2)coc2cc(O)cc(O)c12 [Genistein] | 106.48
CCOC(=O)C1=C[C@@H](OC(CC)CC)[C@H](NC(C)=O)[C@@H](N)C1 [Oseltamivir phosphate] | 101.77
O=C1C=CC[C@@H]2[C@H]3CCC[N+]4([O-])CCC[C@@H](CN12)[C@@H]34 (some centres unmarked) [Oxysophocarpine] | 98.58
C[C@@H]1C(=O)O[C@H]2C[C@@]34[C@H]5C[C@@H](C(C)(C)C)[C@]36[C@@H](OC(=O)[C@@H]6O)O[C@@]4(C(=O)O5)[C@]21O [Ginkgolide A] | 125.97
Cc1cc(=O)c2c(O)c3c(O[C@@H]4O[C@H](CO)[C@@H](O)[C@H](O)[C@H]4O)cccc3cc2o1 [Cassiaside] | 81.67
O=C1c2c(O)cc(O)cc2O[C@H](c2cc(O)c(O)c(O)c2)[C@H]1O [Dihydromyricetin] | 95.62
CC(=O)CC(c1ccccc1)c1c(O)c2ccccc2oc1=O (centres unmarked) [Warfarin sodium] | 84.05
CN(C)CCOC(c1ccccc1)c1ccccc1 [Diphenhydramine Hydrochloride] | 88.58
COC(=O)C[C@](O)(CCCC(C)(C)O)C(=O)O[C@@H]1C(OC)=C[C@]23CCCN2CCc2cc4c(cc2[C@H]13)OCO4 [Homoharringtonine] | 74.77
CC[C@H]1CN2CC[C@@]3(C(=O)Nc4ccccc43)[C@@H]2C[C@@H]1/C(=C\OC)C(=O)OC [Isorhynchophylline] | 87.99
CC1=C(C(=O)O)N2C(=O)[C@@H](NC(=O)[C@H](N)c3ccccc3)[C@H]2SC1 [Cephalexin] | 109.58
COc1ccc(-c2oc3c(CC=C(C)C)c(O[C@@H]4O[C@H](CO)[C@@H](O)[C@H](O)[C@H]4O)cc(O)c3c(=O)c2O[C@@H]2O[C@@H](C)[C@H](O)[C@@H](O)[C@H]2O[C@@H]2O[C@@H](C)[C@H](O)[C@@H](O)[C@H]2O)cc1 [Epmedin C] | 81.94
O=c1cc(-c2ccc(O)cc2)oc2cc(O)c([C@@H]3O[C@H](CO)[C@@H](O)[C@H](O)[C@H]3O)c(O)c12 [Isovitexin] | 79.86
COc1c(OC)c2occc2c2oc(=O)ccc12 [Pimpinellin] | 61.25
CC(C(=O)O)c1cccc(Oc2ccccc2)c1 (centres unmarked) [Fenoprofen] | 91.13
CC1(C)[C@H](C(=O)O)N2C(=O)C[C@H]2S1(=O)=O [Sulbactam sodium] | 88.89
COc1ccc2[nH]c([S+]([O-])Cc3ncc(C)c(OC)c3C)nc2c1 (centres unmarked) [Omeprazole] | 94.84
NCC[C@H](O)C(=O)N[C@@H]1C[C@H](N)[C@@H](O[C@H]2O[C@H](CN)[C@@H](O)[C@H](O)[C@H]2O)[C@H](O)[C@H]1O[C@H]1O[C@H](CO)[C@@H](O)[C@H](N)[C@H]1O [Amikacin] | 73.77
O=C(/C=C/c1ccccc1)OCc1ccccc1 [Benzyl cinnamate] | 74.62
O=c1c(O)c(-c2cc(O)c(O)c(O)c2)oc2cc(O)cc(O)c12 [Myricetin] | 56.43

SMILES | % of control remaining [%]
COCCOC(=O)C1=C(C)NC(C)=C(C(=O)OC(C)C)C1c1cccc([N+](=O)[O-])c1 (centres unmarked) [Nimodipine] | 98.69
C[C@@H]1C(=O)O[C@H]2[C@H](O)[C@@]34[C@H]5C[C@@H](C(C)(C)C)[C@]36[C@@H](OC(=O)[C@@H]6O)O[C@@]4(C(=O)O5)[C@@]12O [Ginkgolide B] | 120.07
O=c1cc(-c2ccc(O)cc2)oc2cc(O)cc(O)c12 [Apigenin] | 102.46
O=C1C[C@@H](c2ccccc2)Oc2cc(O)cc(O)c21 [Pinocembrin] | 91.25
COC(=O)[C@H](c1ccccc1Cl)N1CCc2sccc2C1 [Clopidogrel sulfate] | 90.49
COc1cc2c(cc1OC)-c1cc3ccc(OC)c(OC)c3c[n+]1CC2 [Palmatine chloride] | 87.01
COc1ccc2c(c1)c(CC(=O)O)c(C)n2C(=O)c1ccc(Cl)cc1 [Indometacin] | 102.95
COC(=O)[C@H]1[C@H]2C[C@@H]3c4[nH]c5cc(OC)ccc5c4CCN3C[C@H]2C[C@@H](OC(=O)c2cc(OC)c(OC)c(OC)c2)[C@@H]1OC [Reserpine] | 94.24
Nc1nnc(-c2cccc(Cl)c2Cl)c(N)n1 [Lamotrigine] | 84.88
CC(C)OC(=O)OCOP(=O)(CO[C@H](C)Cn1cnc2c(N)ncnc21)OCOC(=O)OC(C)C [Tenofovir disoproxil] | 91.86
C=C1C(=O)[C@]23[C@H](O)[C@H]1CC[C@H]2[C@@]12CO[C@]3(O)[C@@H](O)[C@@H]1C(C)(C)CC[C@@H]2O [Oridonin] | 66.82
C=C[C@H]1CN2CC[C@H]1C[C@@H]2[C@@H](O)c1ccnc2ccc(OC)cc12 [Quinidine] | 100.77
COc1ccc(-c2coc3cc(O[C@@H]4O[C@H](CO)[C@@H](O)[C@H](O)[C@H]4O)ccc3c2=O)cc1O [Calycosin 7-O-glucoside] | 84.02
COc1c(/C=C/C(=O)c2ccc(O)cc2)ccc(O)c1O [Licochalcone B] | 58.04
COC(=O)C1=CO[C@@H](O)[C@@H]2C(CO)=CC[C@H]12 [Genipin] | 99.28
COc1ccc2c(c1)[C@]13CCCC[C@@H]1[C@H](C2)N(C)CC3 [Dextromethorphan] | 89.61
C=CC(=O)Nc1cc(Nc2nccc(-c3cn(C)c4ccccc34)n2)c(OC)cc1N(C)CCN(C)C [AZD-9291] | 92.69
O=c1c(O)c(-c2ccc(O)c(O)c2)oc2cc(O)cc(O)c12 [Quercetin] | 47.29
COc1ccc(-c2cc(=O)c3c(O)c(OC)c(OC)cc3o2)cc1 [Salvigenin] | 75.70
Cc1coc2c1CCC(C)C2 (centres unmarked) [Menthofuran] | 108.33
COc1cc2c3cc1Oc1c(OC)c(OC)cc4c1[C@@H](Cc1cccc(c1)Oc1ccc(c(O)c1)C[C@@H]3N(C)CC2)N(C)CC4 [Berbamine Hydrochloride] | 69.86
Cc1ncc([N+](=O)[O-])n1CCO [Metronidazole] | 78.49
C[C@]12CCC(=O)C=C1CC[C@@H]1[C@@H]2[C@@H](O)C[C@@]2(C)[C@H]1CC[C@]2(O)C(=O)CO [Hydrocortisone] | 56.27
CCC1=C[C@@H]2CN3CCc4c([nH]c5ccccc45)[C@@](C(=O)OC)(C2)[C@@H]13 [Catharanthine] | 81.11
CCc1cc(C(N)=S)ccn1 [Ethionamide] | 91.71
CN(C)CCCN1c2ccccc2CCc2ccccc21 [Imipramine hydrochloride] | 92.51

From PMC9953885 (Biosensors, 2023)
